Reference: publication PMC10974290, “Biocatalytic Synthesis of Coumarin S-Glycosides: Towards Non-Cytotoxic Probes for Biomedical Imaging and Sensing” (Molecules, 2024)

Legend:
[1] = UV-visible absorbance spectroscopy; assay type: physicochemical; details: 0.1 mM; for emax (molar absorption coefficient): 7-MC + DTT 10 mM; for Absorbance ε (molar absorption coefficient) / Absorbance λmax abs: 7-MC in presence of 10 mM DTT
Experimental: Subsequently, the analysis was carried out under two distinct conditions: firstly, in DMF, at a final concentration of 0.1 mM; and secondly, in a mixture PBS:DMF (99:1%), at the same final concentration of 0.1 mM. These two experimental setups provided valuable insights into the spectral characteristics of the compounds in both a pure organic solvent and a solvent system closely resembling physiological conditions. The maxima absorption wavelengths are compiled in Table 3. These bands were attributed to transitions within the benzene and pyrone moieties, considered together as a single chromophore. […] Similarly, 7-MC and S-1 to S-6 compounds also absorb in this UV range (λmax = 328–330 nm). […] In the organic solvent, these values are found to be higher compared to those calculated for 4-MUB and 7-MC. Conversely, in PBS, the extinction coefficients for S-glycosides are lower compared to the parent thiol 7-MC. This highlights the profound impact of glycosylation on absorption properties, as well as the importance of solvent choice.
Both absorbance and fluorescence spectra were measured on a Tecan […] M PLEX 200 Pro plate reader equipped with monochromator allowing a scan from 230 to 1000 nm. All synthesized molecules were initially dissolved in 10 mM DMF and subsequently diluted in freshly prepared PBS (pH = 7.4) to achieve a final concentration of 0.1 mM. The solutions were then transferred to a Corning (Corning, NY, USA) UV-transparent 96-well plate. Absorbance spectra were recorded from 230 to 800 nm. Emission fluorescence spectra were recorded from 320 to 800 nm, under excitation at 280 nm. Excitation fluorescence spectra were recorded from 230 to 380 nm for an emission at 420 nm. All spectra were recorded with a wavelength step size of 2 nm. Data processing was performed with Excel software 2016. Fluorescence spectra are presented as normalized spectra ranging from 0 to 1. The relative quantum yields were calculated according to Equation (1):(1) ΦT=(AR/AT)×(FT/FR)×[…]×ΦR where Φ is the fluorescence quantum yield, A is the absorbance at the excitation wavelength, F is the area under the corrected emission curve, and n is the refractive index of the solvent for the test compound (T) and the reference (R). The 4-MUB value in DMF was used as the reference. The LOD (resp. LOQ) values were determined as the minimal concentration of product S-3 required to yield a fluorescence that was twice greater than (respectively, 5-times that of) the fluorescence noise on a sample containing PBS, using an excitation wavelength of 280 nm and an emission wavelength of 386 nm (Figure S44).

[2] = test system: HaCaT (keratinocyte normal skin); assay: MTT cell proliferation assay, HaCaT; assay type: cell-based; details: Homo sapiens, 72 h incubation, 95% confidence interval in parentheses
Experimental: (§1) To use these S-glycosidic compounds in cellulo, the potential impact of the glycosidic linkage nature on the anticancer activity was assessed. The S-glycoside derivatives and the 7-MC were tested against four human cancer cell lines and a healthy one, namely A549 (lung carcinoma), HS-683 (glioma cancer), MCF-7 (breast adenocarcinoma), SK-MEL-28 (melanoma skin cancer), and HaCaT (keratinocyte normal skin), using MTT (thiazolyl blue tetrazolium bromide, Sigma-Aldrich, St. Louis, MO, USA) assay, as previously described in the literature. The selected reference drugs were 5-fluorouracil (5-FU) and etoposide.
(§2) Cell proliferation of five distinct cell lines was evaluated using the colorimetric MTT (thiazolyl blue tetrazolium bromide, Sigma) assay. Human keratinocyte normal skin HaCaT was cultivated in DMEM supplemented with 4.5 g/L glucose, 2 mM L-glutamine, and 10% FBS. Cancer cell lines and their respective growth media were obtained from CLS Cell Line Service GmbH (Eppelheim, Germany). Specifically, human skin melanoma SK-MEL-28 and human brain glioma HS683 were cultivated in DMEM with identical supplements as HaCaT cells. The human lung carcinoma cell line A-549 was grown in DMEM/Ham’s F12 (1:1) medium supplemented with 2 mM L-glutamine and 5% FBS. Additionally, human breast adenoma carcinoma MCF-7 cells were sustained in EMEM supplemented with 2 mM L-glutamine, sodium pyruvate, non-essential amino acids (NEAAs), 10 µg/mL insulin human, and 10% FBS. The MTT assay relies on the reduction of the yellow product thiazolyl blue tetrazolium bromide (MTT) to formazan, a purple-blue product, by mitochondrial dehydrogenases in metabolically active cells. The number of living cells after incubation in the presence (or absence, control) of the tested molecules is directly proportional to the blue color, which was measured by spectrophotometry. To perform the assay, cells were initially seeded at a density of 2500 cells/mL in 96-well culture plates (Nunc™ Edge 2.0, Fisher) and allowed to adhere and proliferate over a 24-hour incubation period. Following this, the cells were treated with various concentrations of the tested compounds, which were previously prepared as serial dilutions and dissolved in 0.1% DMSO. These stable solutions guarantee the consistency of experimental conditions over extended periods. Each concentration of the tested compounds underwent triplicate testing (n = 3), and cells were subsequently incubated for 72 h to allow for thorough evaluation. Following this incubation period, MTT reagent (5 mg/mL solution in PBS) was introduced to each well (10% v/v), and cells were further incubated for 4 h. Then, the culture medium was carefully removed, and the resulting blue formazan crystals were dissolved in 100 µL of 100% DMSO. Absorbance readings were taken at 540 nm, referencing a wavelength of 620 nm, using a spectrophotometer. In determining the IC50, the absorbance of serial dilutions of each cell line, treated under identical conditions but without the presence of the tested compounds, was measured.

HS683 (brain glioma) = assay: MTT cell proliferation assay, HS683; assay type: cell-based; details: Homo sapiens, Hs 683, 72 h incubation, 95% confidence interval in parentheses
Experimental: as §1, §2

| Structure (SMILES) | emax (molar absorption coefficient) ([1]; DMF) | Absorbance ε (molar absorption coefficient) ([1]; DMF) | Absorbance λmax abs ([1]; DMF) | emax (molar absorption coefficient) ([1]; PBS 1x (pH = 7.4)) | Absorbance ε (molar absorption coefficient) ([1]; PBS (PBS:DMF 99:1, pH 7.4)) | Absorbance λmax abs ([1]; PBS (PBS:DMF 99:1, pH 7.4)) | IC50 (HS683 (brain glioma)) | IC50 [2] |
| --- | --- | --- | --- | --- | --- | --- | --- | --- |
| Cc1cc(=O)oc2cc(S)ccc12 [Compound 7-MC, 7-mercapto-4-methylcoumarin, reference compound] | 10409,59 cm-1 M-1 | 10.4 10^3 M^−1 cm^−1 | 328 nm | 28929,88854 cm-1 M-1 | 28.9 10^3 M^−1 cm^−1 | 368 nm |  |  |
| Cc1cc(=O)oc2cc(S[C@@H]3O[C@H](C(=O)O)[C@@H](O)[C@H](O)[C@H]3O)ccc12 [Compound S-1, 4-Methylumbellifer-7-yl 1-thio-β-D-glucopyranosiduronic acid] | 26660,51579 cm-1 M-1 | 26.7 10^3 M^−1 cm^−1 | 330 nm | 23328,41338 cm-1 M-1 | 23.3 10^3 M^−1 cm^−1 | 326 nm | > 1000 µM | > 1000 µM |
| Cc1cc(=O)oc2cc(S[C@@H]3OC[C@@H](O)[C@H](O)[C@H]3O)ccc12 [Compound S-2, 4-Methylumbellifer-7-yl 1-thio-β-D-xylopyranoside] |  | 19.5 10^3 M^−1 cm^−1 | 330 nm | 26044,28033 cm-1 M-1 | 26.0 10^3 M^−1 cm^−1 | 324 nm | 275 µM | 162 µM |

Now from value to molecule, other results behind:

| emax (molar absorption coefficient) ([1]; DMF) | Absorbance ε (molar absorption coefficient) ([1]; DMF) | Absorbance λmax abs ([1]; DMF) | emax (molar absorption coefficient) ([1]; PBS 1x (pH = 7.4)) | Absorbance ε (molar absorption coefficient) ([1]; PBS (PBS:DMF 99:1, pH 7.4)) | Absorbance λmax abs ([1]; PBS (PBS:DMF 99:1, pH 7.4)) | IC50 (HS683 (brain glioma)) | Structure (SMILES) | IC50 [2] |
| --- | --- | --- | --- | --- | --- | --- | --- | --- |
| 18634,68658 cm-1 M-1 | 18.6 10^3 M^−1 cm^−1 | 330 nm | 20778,59706 cm-1 M-1 | 20.8 10^3 M^−1 cm^−1 | 326 nm | > 1000 µM | Cc1cc(=O)oc2cc(S[C@@H]3O[C@H](CO)[C@@H](O)[C@H](O)[C@H]3O)ccc12 [Compound S-3, 4-Methylumbellifer-7-yl 1-thio-β-D-glucopyranoside] | > 1000 µM |
| 22265,68277 cm-1 M-1 | 22.3 10^3 M^−1 cm^−1 | 330 nm | 18357,93367 cm-1 M-1 | 18.4 10^3 M^−1 cm^−1 | 326 nm | > 1000 µM | Cc1cc(=O)oc2cc(S[C@@H]3O[C@H](CO)[C@H](O)[C@H](O)[C@H]3O)ccc12 [Compound S-4, 4-Methylumbellifer-7-yl 1-thio-β-D-galactopyranoside] | > 1000 µM |
| 22294,93104 cm-1 M-1 | 22.3 10^3 M^−1 cm^−1 | 330 nm |  | 10.4 10^3 M^−1 cm^−1 | 326 nm | > 1000 µM | Cc1cc(=O)oc2cc(S[C@@H]3O[C@H](C)[C@H](O)[C@H](O)[C@H]3O)ccc12 [Compound S-5, 4-Methylumbellifer-7-yl 1-thio-β-D-fucopyranoside] | > 1000 µM |
| 22265,68277 cm-1 M-1 | 22.3 10^3 M^−1 cm^−1 | 330 nm | 19811,80752 cm-1 M-1 | 19.8 10^3 M^−1 cm^−1 | 326 nm | > 1000 µM | Cc1cc(=O)oc2cc(S[C@H]3O[C@H](CO)[C@H](O)[C@H](O)[C@H]3O)ccc12 [Compound S-6, 4-Methylumbellifer-7-yl 1-thio-α-D-galactopyranoside] | > 1000 µM |
